Measurements as given in patent publication US20240317706A1, “COMPOUNDS THAT MEDIATE PROTEIN DEGRADATION AND METHODS OF USE THEREOF” (Monte Rosa Therapeutics, Inc., priority 2021, published 2024).

Columns and labels:
[1] = molecular target: T1, CDK2 (Homo sapiens, UniProt P24941); assay: HiBiT assay (CDK2 degradation); assay type: cell-based; details: HEK293 clonal line with CRISPR KI HiBiT tag on CDK2, 24 hours, HiBiT Lysis Reagent
T1 construct: HEK293 clonal lines with CRISPR KI HiBiT tag on CDK2 proteins; host or cells: HEK293 clonal line, CRISPR knock-in HiBiT-CDK2, stably expressing LgBiT
Protocol: HEK293 clonal lines with CRISPR KI HiBiT tag on CDK2 proteins and stably expressing LgBiT protein were obtained from Promega (Madison, WI). Cells were plated at 5000 cells per well using Multiflo (BioTek) in 384-well white solid bottom plates (Corning, 3570BC) in 25 ul volume in DMEM media (DMEM, high glucose, HEPES, no phenol red (ThermoFisher Scientific, 21063029)) containing 10% FBS (Corning, 35-075-CV), 1% Penicillin/Streptomycin (ThermoFisher Scientific, 15140-122). Cells were incubated for 16 hours at 37° C., 5% CO2. 75 nL of a compound at 30 μM were dosed into the plate using an Echo® 650 liquid handler (Labcyte). Cells were incubated at 37° C., 5% CO2 for 24 hours. 5 ul of HiBiT Lysis Reagent (Promega, N3030) is added using Combi Multidrop (ThermoFisher Scientific), plates are incubated for 15′ at 37° C., 5% CO2 and then signal was read on a Pherastar FSX using “LUM plus” optic module.
Analysis was performed in Scinamic (Scinamic, Cambridge, MA). Luminescence response (R) was calculated by the formula: response=100*(S−N)/(P−N) where S is the signal of the well, N and P the mean negative and positive control values respectively of the same plate. The luminescence response was then fitted in Scinamic using a 3-parameter agonist logistic fit (hillslope=1, EC50>0, top/bottom unconstrained).

[2] = molecular target: CRBN-DDB1 (Homo sapiens, UniProt Q96SW2); assay: Compound binding to CRBN by HTRF assay; details: CRBN-DDB1 2.5 nM, Cy5-Thalidomide 100 nM, 30 min; Ki from geometric mean IC50 by Cheng-Prustoff transformation
CRBN-DDB1, sequence (Q96SW2 whole entry): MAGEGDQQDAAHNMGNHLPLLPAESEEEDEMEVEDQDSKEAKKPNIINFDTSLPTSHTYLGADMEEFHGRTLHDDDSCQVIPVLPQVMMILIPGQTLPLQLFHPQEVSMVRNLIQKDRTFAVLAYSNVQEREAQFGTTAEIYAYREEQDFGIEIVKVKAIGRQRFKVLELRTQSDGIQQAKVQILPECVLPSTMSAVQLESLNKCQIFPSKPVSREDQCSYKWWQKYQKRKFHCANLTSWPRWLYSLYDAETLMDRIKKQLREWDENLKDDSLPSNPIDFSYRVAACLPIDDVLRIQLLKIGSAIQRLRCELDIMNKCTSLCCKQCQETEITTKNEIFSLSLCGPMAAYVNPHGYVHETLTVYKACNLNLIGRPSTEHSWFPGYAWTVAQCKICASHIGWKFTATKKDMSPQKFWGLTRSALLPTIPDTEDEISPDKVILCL
CRBN-DDB1, sequence (Q16531 whole entry partner): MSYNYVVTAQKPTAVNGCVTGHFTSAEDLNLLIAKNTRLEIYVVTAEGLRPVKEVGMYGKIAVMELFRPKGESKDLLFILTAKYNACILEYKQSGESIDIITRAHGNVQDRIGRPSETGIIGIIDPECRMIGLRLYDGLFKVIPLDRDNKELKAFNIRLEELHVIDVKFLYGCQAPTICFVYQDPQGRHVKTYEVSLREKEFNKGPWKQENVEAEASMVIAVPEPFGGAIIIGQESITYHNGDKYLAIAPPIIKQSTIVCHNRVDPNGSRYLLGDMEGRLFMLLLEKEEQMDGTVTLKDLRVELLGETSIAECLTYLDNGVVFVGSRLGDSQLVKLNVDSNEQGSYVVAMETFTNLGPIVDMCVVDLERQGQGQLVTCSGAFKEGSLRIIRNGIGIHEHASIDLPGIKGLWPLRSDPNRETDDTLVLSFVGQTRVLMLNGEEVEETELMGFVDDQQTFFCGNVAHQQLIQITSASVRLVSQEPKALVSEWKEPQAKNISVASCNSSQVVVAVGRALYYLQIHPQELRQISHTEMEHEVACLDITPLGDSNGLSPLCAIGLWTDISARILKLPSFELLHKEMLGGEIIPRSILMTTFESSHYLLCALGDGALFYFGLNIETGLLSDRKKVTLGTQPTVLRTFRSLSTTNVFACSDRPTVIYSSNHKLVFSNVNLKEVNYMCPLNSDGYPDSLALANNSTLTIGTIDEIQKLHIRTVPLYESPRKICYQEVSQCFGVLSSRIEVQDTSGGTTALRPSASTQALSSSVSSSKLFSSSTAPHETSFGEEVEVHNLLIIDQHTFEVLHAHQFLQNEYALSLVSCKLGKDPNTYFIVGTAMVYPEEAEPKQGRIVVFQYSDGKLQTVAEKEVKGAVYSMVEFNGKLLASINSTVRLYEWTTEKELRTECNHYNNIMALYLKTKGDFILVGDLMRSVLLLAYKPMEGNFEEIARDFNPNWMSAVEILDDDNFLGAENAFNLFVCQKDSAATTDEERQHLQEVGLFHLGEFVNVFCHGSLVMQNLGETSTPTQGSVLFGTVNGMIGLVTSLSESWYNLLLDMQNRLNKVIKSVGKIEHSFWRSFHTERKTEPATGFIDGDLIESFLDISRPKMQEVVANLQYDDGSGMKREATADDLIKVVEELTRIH
Method in brief: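 HTRF displacement of Cy5-thalidomide probe (100 nM) from His-CRBN-DDB1 (2.5 nM) with anti-His terbium cryptate, in HEPES/NaCl/TCEP/EDTA/Tween20 buffer. 10-point 1:3 compound series, 30 min at ambient temperature; signal normalised to DMSO and lenalidomide controls, IC50 fitted and Ki derived by Cheng-Prusoff.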

| SMILES | Dmax [1] | Ki [2] |
| --- | --- | --- |
| O=C1CCC(N2Cc3ccc(CNC(=O)O[C@@H]4CCC[C@H]4c4ccccc4)cc3C2=O)C(=O)N1 (mixture of isomers) [Compound 26, rac-(1R,2S)-2-phenylcyclopentyl N-{[2-(2,6-dioxopiperidin-3-yl)-3-oxo-2,3-dihydro-1H-isoindol-5-yl]methyl}carbamate] | 10 to 50% | ≤ 100 nM |
| O=C1CCC(N2Cc3ccc(CNC(=O)O[C@@H]4C[C@H]5CC[C@@H]4O5)cc3C2=O)C(=O)N1 (mixture of isomers) [Compound 27, rac-(1R,2S,4S)-7-oxabicyclo[2.2.1]heptan-2-yl N-{[2-(2,6-dioxopiperidin-3-yl)-3-oxo-2,3-dihydro-1H-isoindol-5-yl]methyl}carbamate] | ≤ 10% | 100 to 1000 nM |
| O=C1CCC(N2Cc3ccc(CNC(=O)O[C@@H]4CO[C@@H]4c4ccccc4)cc3C2=O)C(=O)N1 (mixture of isomers) [Compound 37, rac-(2R,3R)-2-phenyloxetan-3-yl N-{[2-(2,6-dioxopiperidin-3-yl)-3-oxo-2,3-dihydro-1H-isoindol-5-yl]methyl}carbamate] | ≤ 10% | 100 to 1000 nM |
| O=C1CCC(N2Cc3ccc(CNC(=O)OC[C@@H]4C[C@@H]5C=C[C@H]4CC5)cc3C2=O)C(=O)N1 (mixture of isomers) [Compound 70, rac-[(1R,2R,4R)-bicyclo[2.2.2]oct-5-en-2-yl]methyl N-{[2-(2,6-dioxopiperidin-3-yl)-3-oxo-2,3-dihydro-1H-isoindol-5-yl]methyl}carbamate] | 50 to 80% | ≤ 100 nM |
| CC1(C)CCC(OC(=O)NCc2ccc3c(c2)C(=O)N(C2CCC(=O)NC2=O)C3)CC1 (stereo not drawn) [Compound 1, 4,4-dimethylcyclohexyl ((2-(2,6-dioxopiperidin-3-yl)-3-oxoisoindolin-5-yl)methyl)carbamate] | 10 to 50% | 100 to 1000 nM |
| O=C1CCC(N2Cc3ccc(CNC(=O)OCC4CC5(CCC5)C4)cc3C2=O)C(=O)N1 (stereo not drawn) [Compound 2, spiro[3.3]heptan-2-ylmethyl ((2-(2,6-dioxopiperidin-3-yl)-3-oxoisoindolin-5-yl)methyl)carbamate] | 50 to 80% | 100 to 1000 nM |
| O=C1CCC(N2Cc3ccc(CNC(=O)OC4CC5(CCC5)C4)cc3C2=O)C(=O)N1 (stereo not drawn) [Compound 3, spiro[3.3]heptan-2-yl ((2-(2,6-dioxopiperidin-3-yl)-3-oxoisoindolin-5-yl)methyl)carbamate] | 10 to 50% | 100 to 1000 nM |
| O=C1CCC(N2Cc3ccc(CNC(=O)OC4CC5(CCCCC5)C4)cc3C2=O)C(=O)N1 (stereo not drawn) [Compound 4, spiro[3.5]nonan-2-yl ((2-(2,6-dioxopiperidin-3-yl)-3-oxoisoindolin-5-yl)methyl)carbamate] | 50 to 80% | 100 to 1000 nM |
| O=C1CCC(N2Cc3ccc(CNC(=O)OCC45CC(c6ccccc6)(C4)C5)cc3C2=O)C(=O)N1 (stereo not drawn) [Compound 6, (3-phenylbicyclo[1.1.1]pentan-1-yl)methyl ((2-(2,6-dioxopiperidin-3-yl)-3-oxoisoindolin-5-yl)methyl)carbamate] | 10 to 50% |  |
| O=C1CCC(N2Cc3ccc(CNC(=O)OC4CCOC4)cc3C2=O)C(=O)N1 (stereo not drawn) [Compound 13, oxolan-3-yl N-{[2-(2,6-dioxopiperidin-3-yl)-3-oxo-2,3-dihydro-1H-isoindol-5-yl]methyl}carbamate] | ≤ 10% | 100 to 1000 nM |
| O=C1CCC(N2Cc3ccc(CNC(=O)OC4CC4)cc3C2=O)C(=O)N1 (stereo not drawn) [Compound 14, cyclopropyl N-{[2-(2,6-dioxopiperidin-3-yl)-3-oxo-2,3-dihydro-1H-isoindol-5-yl]methyl}carbamate] | 10 to 50% | 100 to 1000 nM |
| CC1(C)CCC(OC(=O)NCc2ccc3c(c2)CN(C2CCC(=O)NC2=O)C3=O)CC1 (stereo not drawn) [Compound 15, 4,4-dimethylcyclohexyl N-{[2-(2,6-dioxopiperidin-3-yl)-1-oxo-2,3-dihydro-1H-isoindol-5-yl]methyl}carbamate] | 50 to 80% | ≤ 100 nM |
| CC1(COC(=O)NCc2ccc3c(c2)C(=O)N(C2CCC(=O)NC2=O)C3)COC1 (stereo not drawn) [Compound 16, (3-methyloxetan-3-yl)methyl N-{[2-(2,6-dioxopiperidin-3-yl)-3-oxo-2,3-dihydro-1H-isoindol-5-yl]methyl}carbamate] | ≤ 10% | 100 to 1000 nM |
| O=C1CCC(N2Cc3ccc(CNC(=O)OC4CCc5ccccc5C4)cc3C2=O)C(=O)N1 (stereo not drawn) [Compound 17, 1,2,3,4-tetrahydronaphthalen-2-yl N-{[2-(2,6-dioxopiperidin-3-yl)-3-oxo-2,3-dihydro-1H-isoindol-5-yl]methyl}carbamate] | 10 to 50% | 100 to 1000 nM |
| O=C1CCC(N2Cc3ccc(CNC(=O)OCC4CCc5ccccc54)cc3C2=O)C(=O)N1 (stereo not drawn) [Compound 18, (2,3-dihydro-1H-inden-1-yl)methyl N-{[2-(2,6-dioxopiperidin-3-yl)-3-oxo-2,3-dihydro-1H-isoindol-5-yl]methyl}carbamate] | 10 to 50% | 100 to 1000 nM |
| O=C1CCC(N2Cc3ccc(CNC(=O)OCC4OCCc5ccccc54)cc3C2=O)C(=O)N1 (stereo not drawn) [Compound 19, (3,4-dihydro-1H-2-benzopyran-1-yl)methyl N-{[2-(2,6-dioxopiperidin-3-yl)-3-oxo-2,3-dihydro-1H-isoindol-5-yl]methyl}carbamate] | ≤ 10% | ≤ 100 nM |
| CC(C)C1CC(COC(=O)NCc2ccc3c(c2)C(=O)N(C2CCC(=O)NC2=O)C3)C1 (stereo not drawn) [Compound 20, [3-(propan-2-yl)cyclobutyl]methyl N-{[2-(2,6-dioxopiperidin-3-yl)-3-oxo-2,3-dihydro-1H-isoindol-5-yl]methyl}carbamate] | 10 to 50% | ≤ 100 nM |
| O=C1CCC(N2Cc3ccc(CNC(=O)OCCOC4CC4)cc3C2=O)C(=O)N1 (stereo not drawn) [Compound 21, 2-cyclopropoxyethyl N-{[2-(2,6-dioxopiperidin-3-yl)-3-oxo-2,3-dihydro-1H-isoindol-5-yl]methyl}carbamate] | ≤ 10% | 100 to 1000 nM |
| CC1(COC(=O)NCc2ccc3c(c2)C(=O)N(C2CCC(=O)NC2=O)C3)CCCO1 (stereo not drawn) [Compound 22, (2-methyloxolan-2-yl)methyl N-{[2-(2,6-dioxopiperidin-3-yl)-3-oxo-2,3-dihydro-1H-isoindol-5-yl]methyl}carbamate] | ≤ 10% | 100 to 1000 nM |
| CO[C@H]1C[C@@H](OC(=O)NCc2ccc3c(c2)C(=O)N(C2CCC(=O)NC2=O)C3)C1 (stereo partly drawn) [Compound 23, (1s,3s)-3-methoxycyclobutyl N-{[2-(2,6-dioxopiperidin-3-yl)-3-oxo-2,3-dihydro-1H-isoindol-5-yl]methyl}carbamate] | ≤ 10% | 100 to 1000 nM |
| CC1(C)CCC1OC(=O)NCc1ccc2c(c1)C(=O)N(C1CCC(=O)NC1=O)C2 (stereo not drawn) [Compound 24, 2,2-dimethylcyclobutyl N-{[2-(2,6-dioxopiperidin-3-yl)-3-oxo-2,3-dihydro-1H-isoindol-5-yl]methyl}carbamate] | 10 to 50% | 100 to 1000 nM |
| C[C@H]1C[C@@H]1COC(=O)NCc1ccc2c(c1)C(=O)N(C1CCC(=O)NC1=O)C2 (stereo partly drawn) [Compound 25, [(1S,2S)-2-methylcyclopropyl]methyl N-{[2-(2,6-dioxopiperidin-3-yl)-3-oxo-2,3-dihydro-1H-isoindol-5-yl]methyl}carbamate] | ≤ 10% | 100 to 1000 nM |
| C[C@H](OC(=O)NCc1ccc2c(c1)C(=O)N(C1CCC(=O)NC1=O)C2)C1CC1 (stereo partly drawn) [Compound 28, (1S)-1-cyclopropylethyl N-{[2-(2,6-dioxopiperidin-3-yl)-3-oxo-2,3-dihydro-1H-isoindol-5-yl]methyl}carbamate] | 10 to 50% | 100 to 1000 nM |
| O=C1CCC(N2Cc3ccc(CNC(=O)OC[C@H]4CCCO4)cc3C2=O)C(=O)N1 (stereo partly drawn) [Compound 29, [(2R)-oxolan-2-yl]methyl N-{[2-(2,6-dioxopiperidin-3-yl)-3-oxo-2,3-dihydro-1H-isoindol-5-yl]methyl}carbamate] | ≤ 10% | ≤ 100 nM |
| C[C@H]1COC[C@@H]1OC(=O)NCc1ccc2c(c1)C(=O)N(C1CCC(=O)NC1=O)C2 (stereo partly drawn) [Compound 30, (3R,4S)-4-methyloxolan-3-yl N-{[2-(2,6-dioxopiperidin-3-yl)-3-oxo-2,3-dihydro-1H-isoindol-5-yl]methyl}carbamate] | ≤ 10% | 100 to 1000 nM |
| CC1(C)CC(OC(=O)NCc2ccc3c(c2)C(=O)N(C2CCC(=O)NC2=O)C3)C1 (stereo not drawn) [Compound 31, 3,3-dimethylcyclobutyl N-{[2-(2,6-dioxopiperidin-3-yl)-3-oxo-2,3-dihydro-1H-isoindol-5-yl]methyl}carbamate] | 10 to 50% | 100 to 1000 nM |
